Laboratory results: US6486156B1, “Chemical compounds” (Astrazeneca AB, priority 1998, dated 2002)

Target: T1, Farnesyl protein transferase (FPT) (Homo sapiens, UniProt P49354+P49356)
T1 construct: partially purified from human placenta by ammonium sulphate fractionation; from tissue; host or cells: human placenta
Experiment: In-vitro assay (test (i)): inhibition of farnesylation of Ki-ras with radiolabelled farnesyl pyrophosphate
Type: biochemical
Details: FPT partially purified from human placenta; substrate Kras (CVIM C-terminal sequence)
Experimental: The following stock solutions were used and the assays were conducted in 96 well plates: TRIS Buffer (500 mM TRIS, 5 mM MgCl2.6H2O, pH=8.0); Farnesyl pyrophosphate (6.4 mg/ml); Aprotinin (1.9 mg/ml); Ki-ras (0.5 mg/ml, stored at −80° C.); Acid ethanol (850 ml absolute ethanol+150 ml concentrated HCl).
Farnesyl protein transferase (FPT) was partially purified from human placenta by ammonium sulphate fractionation followed by a single Q-Sepharose™ (Pharmacia, Inc) anion exchange chromatography essentially as described by Ray and Lopez-Belmonte (Ray K P and Lopez-Belmonte J (1992) Biochemical Society Transactions 20 494-497). The substrate for FPT was Kras (CVIM C-terminal sequence). The cDNA for oncogenic val 12 variant of human c-Ki-ras-2 4B was obtained from the plasmid pSW11-1 (ATCC). This was then subcloned into the polylinker of a suitable expression vector e.g. pIC147. The Kras was obtained after expression in the E. coli strain, BL21. […]
Assays were performed in 96 well plates as follows: 10 μl of test compound solution was added to each well. […] Precipitated protein was then collected onto glass fibre filter mats (B) using a Tomtec™ cell harvester and tritiated label was measured in a Wallac™ 1204 Betaplate scintillation counter. […]

IC50: ~0.4 nM
SMILES: CSCC[C@H](NC(=O)c1ccc(/C=C/Cn2ccnc2)cc1-c1ccc(Cl)cc1Cl)C(=O)O [Example 29, (2S)-2-{4-[(E)-3-(Imidazol-1-yl)prop-1-en-1-yl]-2-(2,4-dichlorophenyl)benzamido}-4-methylsulfanylbutyric Acid]
